The values that follow come from patent publication US9994556B2, “Triazole modified coumarin and biphenyl amide-based HSP90 inhibitors” (THE UNIVERSITY OF KANSAS, priority 2014, dated 2018).

In one experiment the test system is SKBr3 cells. Nature of the experiment: MTS/PMS cell viability assay, SKBr3. The format is cell-based. As to conditions: Homo sapiens, SK-BR-3. In outline: (§1)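 Cells seeded at 2000/well in Advanced DMEM/F12 with 10% FBS, attached overnight, then exposed to compound (1% DMSO final) for 72 hr at 37° C. Viable cells counted by MTS/PMS, normalised to 1% DMSO as 100%; IC50 from triplicate experiments.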

A further experiment deals with MCF-7 cells. Nature of the experiment: MTS/PMS cell viability assay, MCF-7. The format is cell-based. As to conditions: Homo sapiens, MCF7. The procedure, abridged:
as §1

Another experiment deals with MDA-MB-468LN cell line. Nature of the experiment: Promega CellTiter-Glo (CTG) luminescent assay, MDA-MB-468LN. The format is cell-based. As to conditions: Homo sapiens, 72 hr, mean ± standard deviation. In outline:
(§2)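 Antiproliferative activity measured after 72 hr compound treatment by CellTiter-Glo luminescence (ATP-based viability). Selected data cross-checked by MTS/PMS viability assay.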

In another experiment the test system is MDA1986 cell line. Nature of the experiment: Promega CellTiter-Glo (CTG) luminescent assay, MDA1986. The class given is cell-based. As to conditions: 72 hr, mean ± standard deviation, read-out: IC50 MDA1986. The procedure, abridged: as §2
The subject of the next experiment is JMAR cell line. Nature of the experiment: Promega CellTiter-Glo (CTG) luminescent assay, JMAR. As to conditions: 72 hr, mean ± standard deviation. The class given is cell-based. In outline:
as §2

The next experiment deals with PC3-MM2 cells. Nature of the experiment: Sulforhodamine B assay, PC3-MM2. The class given is cell-based. To be noted: Homo sapiens, PC3MM2, mean ± standard deviation. The procedure, abridged:
(§3)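 Cells treated over a 10-point dose range, fixed with trichloroacetic acid, stained with sulforhodamine B, solubilised in 10 mM Tris, absorbance at 565 nm. Growth inhibition computed against time-zero and untreated wells; curves fitted by sigmoidal non-linear regression.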

The test system of the next experiment is LNCaP cells. Nature of the experiment: Sulforhodamine B assay, LNCaP. The format is cell-based. As to conditions: Homo sapiens, mean ± standard deviation. The procedure, abridged:
as §3

Experiment [1] deals with SKBr3, MDA-MB-468LN, MCF-7, MDA1986, JMAR, PC3-MM2 and LNCaP cell lines. Nature of the experiment: Antiproliferative activity against the panel of cancer cell lines. The format is cell-based. As to conditions: for activity against all cell lines tested: panel of seven cancer cell lines. On the procedure:
a) MTS/PMS Cell Viability Assay (SKBr3 and MCF-7 Cells)
Cells were maintained in a 1:1 mixture of Advanced DMEM/F12 (Gibco) supplemented with non-essential amino acids, L-glutamine (2 mM), streptomycin (500 μg/mL), penicillin (100 units/mL), and 10% FBS. Cells were grown to confluence in a humidified atmosphere (37° C., 5% CO2), seeded (2000/well, 100 μL) in 96-well plates, and allowed to attach overnight. Compound at varying concentrations in DMSO (1% DMSO final concentration) was added, and cells were returned to the incubator for 72 hr. At 72 hr, the number of viable cells was determined using an MTS/PMS cell proliferation kit (Promega) per the manufacturer's instructions. Cells incubated in 1% DMSO were used at 100% proliferation, and values were adjusted accordingly. IC50 values were calculated from separate experiments performed in triplicate using GraphPad Prism. […]
b) Promega CellTiter-Glo (CTG) Luminescent Assay
Antiproliferative activities against MDA-MB-468LN, MDA1986 and JMAR cell lines were performed with 384-well white plates with the Promega CellTiter-Glo (CTG) luminescent assay with 72 hr compound treatment. Data analysis was performed using GraphPad Prism. Selected data were further checked with MTS/PMS cell viability assay with 96-well plates, which correlated well with Promega CellTiter-Glo luminescent assay. […]
c) Sulforhodamine B Assay
The sulforhodamine B assay is used to measure drug-induced cytotoxicity and cell proliferation for large-scale drug-screening applications. Its principle is based on the ability of the protein dye sulforhodamine B to bind electrostatically on pH dependent protein basic amino acid residues of trichloroacetic acid-fixed cells. The aim is to evaluate samples showing selective growth inhibition or cell killing of particular tumor cell lines.
The SRB assay is performed by treating cells using a 10 point dose-response curve. The cells are fixed with trichloroacetic acid solution and stained with sulforhodamine B dye. The stained cells are then solubilized with 10 mM Tris buffer and read for absorbance at 565 nm.

In experiment [2] the test system is Hsp90 client proteins Her2, Akt, Raf-1 and CDK6. Nature of the experiment: Western blot analyses of Hsp90 client protein degradation in MCF-7 cell lysates. The class given is cell-based, human. To be noted: for client proteins Her2, Akt, Raf-1 and CDK6 (Western blot, concentration series) / Hsp90 client proteins Her2, Akt and Raf-1 (Western blot): 24 h; for client proteins Her2, Akt, Raf-1 and CDK6 (Western blot, concentration series): increasing concentrations; for Hsp90 client proteins Her2, Akt and Raf-1 (Western blot): MCF-7 lysates, L = 1/2 and H = 5 times the antiproliferative IC50. On the procedure:
(§4) MCF-7 cells were cultured as described above and treated with various concentrations of drug, Geldanamycin (GDA or G) in DMSO (1% DMSO final concentration), or vehicle (DMSO) for 24 hr. Cells were harvested in cold PBS and lysed in RIPA lysis buffer containing 1 mM PMSF, 2 mM sodium orthovanadate, and protease inhibitors on ice for 1 hr. Lysates were clarified at 14000 g for 10 min at 4° C. Protein concentrations were determined using the Pierce BCA protein assay kit per the manufacturer's instructions. Equal amounts of protein (15 μg) were electrophoresed under reducing conditions, transferred to a PVDF membrane, and immunoblotted with the corresponding specific antibodies. Membranes were incubated with an appropriate horseradish peroxidase-labeled secondary antibody, developed with a chemiluminescent substrate, and visualized.

The subject of the next experiment is Hsp90 C-terminus. Nature of the experiment: Proteolytic fingerprinting assay of Hsp90 from rabbit reticulocyte lysate. The format is binding. To be noted: band not detected for vehicle control. On the procedure:
e) Proteolytic Fingerprinting Assay
Rabbit reticulocyte (Green Hectares) incubated under conditions of protein synthesis at 30° C. in the presence of compound or vehicle (1% DMSO) for 10 minutes. Each reaction mixture contained 66.6% rabbit reticulocyte and 33.3% ATP regenerating system (10 mM creatine phosphate and 20 μg mL^−1 creatine phosphokinase) and a final concentration of 75 mM KCl. Each reaction mixture contained the indicated amount of compound. After incubating, the samples were immediately placed on ice and the indicated amount of TPCK-treated trypsin (Worthington) was added to each sample. The samples digested on ice for an additional 6 minutes and the reactions were quenched by the addition of Laemmli sample buffer followed by immediate boiling. Equal amounts of each sample were electrophoresed under reducing conditions (12% acrylamide gels), transferred to PVDF, and immunoblotted with an antibody specific to the Hsp90 C-terminus. Membranes were incubated with an appropriate horseradish peroxidase-labeled secondary antibody, developed with a chemiluminescent substrate, and visualized.

Experiment [3] relates to heat shock proteins Hsp27, Hsp70 and Hsp90. Nature of the experiment: Western blot analyses of heat shock proteins in MCF-7 cell lysates. The format is cell-based, human. As to conditions: MCF-7 cells, 24 h, increasing concentrations of 5f. On the procedure: as §4
Setting [4] is: Table 1 coumarin-based triazoles, 72 hr, mean ± standard deviation, at least two experiments in triplicate, read-out: IC50 SKBr3.
The mark [5] stands for this setting: Table 1 coumarin-based triazoles, 72 hr, mean ± standard deviation, read-out: IC50 MCF-7.
[6] abbreviates: Table 1 coumarin-based triazoles.
Where [7] appears, read: Table 2 biphenyl triazole analogues, 72 hr, mean ± standard deviation, read-out: IC50 SKBr3.
The mark [8] stands for this setting: Table 2 biphenyl triazole analogues, 72 hr, mean ± standard deviation, read-out: IC50 MCF-7.
Setting [9] is: read-out: IC50 against MCF-7 cell line.
The mark [10] stands for this setting: Table 2 biphenyl triazole analogues.

Molecules are shown by their SMILES. “Also recorded” adds a separate entry of the source. Read-outs that look alike come from different tables or passages of the source.

For `Cc1c(OC2CCN(C)CC2)ccc2cc(NC(=O)c3cn(-c4ccccc4)nn3)c(=O)oc12` [4a, N-(8-methyl-7-((1-methylpiperidin-4-yl)oxy)-2-oxo-2H-chromen-3-yl)-1-phenyl-1H-1,2,3-triazole-4-carboxamide], the IC50 in the experiment with SKBr3 cells (setting [4]) is 940 ± 20 nM; in the experiment with MCF-7 cells (setting [5]), 1330 ± 130 nM; in the experiment on MDA-MB-468LN cell line (setting [6]) it was 1100 ± 210 nM; in the experiment on MDA1986 cell line (setting [6]), 1500 ± 3400 nM; with JMAR cell line (setting [6]) it was 2300 ± 400 nM; in the experiment on PC3-MM2 cells (setting [6]) it was 2690 nM. In addition, in the experiment on LNCaP cells (setting [6]), the IC50 came to 4720 ± 710 nM. For the same compound, in experiment [1], the “activity against all cell lines tested” value is recorded as “low micromolar”.

Regarding `CN1CCC(Oc2ccc(-c3ccc(NC(=O)c4cn(Cc5ccccc5)nn4)cc3)cc2)CC1` [5b, 1-Benzyl-N-(4′-((1-methylpiperidin-4-yl)oxy)-[1,1′-biphenyl]-4-yl)-1H-1,2,3-triazole-4-carboxamide], the IC50 worked out at 170 ± 20 nM with SKBr3 cells (setting [7]); 170 nM with SKBr3 cells (read-out: IC50 against SKBr3 cell line); 500 ± 20 nM with MCF-7 cells (setting [8]); 500 nM with MCF-7 cells (setting [9]); 340 ± 70 nM with MDA-MB-468LN cell line (setting [10]); 280 ± 100 nM in the experiment on MDA1986 cell line (setting [10]). Also, the IC50 with JMAR cell line (setting [10]) turned out to be 500 ± 60 nM; in the experiment with PC3-MM2 cells (setting [10]), 550 ± 460 nM; in the experiment on LNCaP cells (setting [10]) it was 650 ± 540 nM. The “client proteins Her2, Akt, Raf-1 and CDK6 (Western blot, concentration series)” value in experiment [2] (MCF-7 cells) was “degraded in a concentration-dependent manner”. In addition, the “Hsp90 client proteins Her2, Akt and Raf-1 (Western blot)” value in experiment [2] is recorded as “decreased; also recorded: Clear degradation”. Also, the “times more potent than 5a against all the cell lines evaluated” value in [1] (5b compared with 5a) is 2.5-8 times.

On to `CO[C@@H]1[C@@H](OC(N)=O)[C@@H](O)[C@H](Oc2ccc3c(O)c(NC(=O)c4ccc(O)c(CC=C(C)C)c4)c(=O)oc3c2C)OC1(C)C` [novobiocin, reference compound], for which the “50 kDa Hsp90 fragment on trypsin proteolysis (C-terminal Hsp90 antibody)” value in the experiment on Hsp90 C-terminus (5 mM compound) is listed as 50 kDa band was detected.

In the case of `Cc1c(OC2CCN(C)CC2)ccc2cc(NC(=O)c3cn(Cc4ccccc4)nn3)c(=O)oc12` [4b, 1-Benzyl-N-(8-methyl-7-((1-methylpiperidin-4-yl)oxy)-2-oxo-2H-chromen-3-yl)-1H-1,2,3-triazole-4-carboxamide], the IC50 in the experiment on SKBr3 cells (setting [4]) was 990 ± 80 nM; in the experiment with MCF-7 cells (setting [5]) it was 1080 nM; with MDA-MB-468LN cell line (setting [6]), 2400 nM; in the experiment with MDA1986 cell line (setting [6]) it was 1600 ± 210 nM; in the experiment on JMAR cell line (setting [6]) it was 2100 ± 230 nM; with PC3-MM2 cells (setting [6]) it was 9800 ± 13500 nM. Moreover, the IC50 in the experiment with LNCaP cells (setting [6]) was 15500 ± 8750 nM. Moreover, in [1], the “activity against all cell lines tested” value is on record as “low micromolar”.

Regarding `Cc1ccc(Cn2cc(C(=O)Nc3ccc(-c4ccc(OC5CCN(C)CC5)cc4)cc3)nn2)cc1` [5f, 1-(4-Methylbenzyl)-N-(4′-((1-methylpiperidin-4-yl)oxy)-[1,1′-biphenyl]-4-yl)-1H-1,2,3-triazole-4-carboxamide], the IC50 turned out to be 170 ± 30 nM with SKBr3 cells (setting [7]); 120 ± 10 nM in the experiment with MCF-7 cells (setting [8]); 120 nM in the experiment on MCF-7 cells (setting [9]); 410 ± 260 nM in the experiment on MDA-MB-468LN cell line (setting [10]); 360 ± 50 nM in the experiment with MDA1986 cell line (setting [10]); 420 ± 70 nM with JMAR cell line (setting [10]). Besides, the half-maximal inhibitory concentration (IC50) in the experiment on PC3-MM2 cells (setting [10]) was 360 ± 40 nM; with LNCaP cells (setting [10]) it was 200 ± 40 nM. For the same compound, in experiment [2] (MCF-7 cells), the “client proteins Her2, Akt, Raf-1 and CDK6 (Western blot, concentration series)” value is reported as “degraded in a concentration-dependent manner”. Further, the “concentration able to deplete Hsp90 client proteins as well as Geldanamycin at 500 nM” value in experiment [2] (MCF-7 cells, Western blot) is 1 µM. Also, in [2], the “Hsp90 client proteins Her2, Akt and Raf-1 (Western blot)” value is “decreased; also recorded: Clear degradation”. Further, the “heat shock proteins Hsp27, Hsp70, or Hsp90 levels” value in [3] is listed as “No increase”. Besides, the “50 kDa Hsp90 fragment on trypsin proteolysis (C-terminal Hsp90 antibody)” value in the experiment with Hsp90 C-terminus (1 mM compound) was found to be 50 kDa band was detected.
